The test system of one assay is MKL-2 cells (VP-MCC). As to the kind of experiment: qHTS cell viability (CellTiter-Glo, 72 h; primary and follow-up small molecule screen). It counts as cell-based, human.
For assay [1], the system named is MCC cell lines (WAGA, MKL-1, MKL-2, MCC13, MCC26, UISO). Put plainly: qHTS cell viability, all six MCC cell lines as a group (mean AUC, MCC.avg). It counts as cell-based, human.
A further assay relates to WAGA cells (VP-MCC). As to the kind of experiment: qHTS cell viability (CellTiter-Glo, 72 h; primary and follow-up small molecule screen). The assay is classed as cell-based, human.
In a further assay the test system is MKL-1 cells (VP-MCC). Described as above. The assay is classed as cell-based, human.
The subject of a further assay is CRL-7250 cells. As to the kind of experiment: qHTS cell viability (CellTiter-Glo, 72 h; primary screen), control cell line. The assay is classed as cell-based.
A further assay concerns UISO cells (VN-MCC). As to the kind of experiment: qHTS cell viability (CellTiter-Glo, 72 h; primary and follow-up small molecule screen). It counts as cell-based, human.
The test system of a further assay is HEK293T cells. Put plainly: qHTS cell viability (CellTiter-Glo, 72 h; primary screen), control cell line. It counts as cell-based, human.
Assay [2] deals with VP-MCC cell lines (WAGA, MKL-1, MKL-2). Put plainly: qHTS cell viability, VP-MCC cell lines as a group (mean AUC, VP.MCC.avg). The assay is classed as cell-based, human.
Assay [3] concerns control cell lines (HACAT, HEK293T, CRL-7250, NIH-3T3). Put plainly: qHTS cell viability, control cell lines as a group (mean AUC, Control.avg). The assay is classed as cell-based.
The subject of assay [4] is VN-MCC cell lines (MCC13, MCC26, UISO). Put plainly: qHTS cell viability, VN-MCC cell lines as a group (mean AUC, VN.MCC.avg). It counts as cell-based, human.
In another assay the test system is MCC26 cells (VN-MCC). Put plainly: qHTS cell viability (CellTiter-Glo, 72 h; primary and follow-up small molecule screen). It counts as cell-based, human.
The test system of the next assay is MCC13 cells (VN-MCC). Described as above. The assay is classed as cell-based, human.
For another assay, the system named is NIH-3T3 cells. Put plainly: qHTS cell viability (CellTiter-Glo, 72 h; primary screen), control cell line. The assay is classed as cell-based, mouse.
Assay [5] deals with six MCC cell lines and four control cell lines. As to the kind of experiment: qHTS cell viability, all 10 cell lines screened. It counts as cell-based.
A further assay concerns HACAT cells. As to the kind of experiment: qHTS cell viability (CellTiter-Glo, 72 h; primary screen), control cell line. It counts as cell-based, human.
Setting [6] is: NPC library, qHTS dose-response AUC, MKL2.
The mark [7] stands for this setting: NPC library, mean AUC of six MCC cell lines.
The mark [8] stands for this setting: NPC library, qHTS dose-response AUC, WAGA.
Where [9] appears, read: NPC library, qHTS dose-response AUC, MKL1.
Where [10] appears, read: NPC library, qHTS dose-response AUC, CRL7250 control.
The mark [11] stands for this setting: NPC library, qHTS dose-response AUC, UISO.
The mark [12] stands for this setting: NPC library, qHTS dose-response AUC, HEK293T control.
Where [13] appears, read: NPC library, mean AUC of VP-MCC cell lines.
Where [14] appears, read: NPC library, therapeutic window: Control avg AUC minus VP-MCC avg AUC.
Where [15] appears, read: NPC library, mean AUC of control cell lines.
Setting [16] is: NPC library, mean AUC of VN-MCC cell lines.
Where [17] appears, read: NPC library, therapeutic window: Control avg AUC minus VN-MCC avg AUC.
The mark [18] stands for this setting: NPC library, qHTS dose-response AUC, MCC26.
Where [19] appears, read: NPC library, qHTS dose-response AUC, MCC13.
Where [20] appears, read: NPC library, qHTS dose-response AUC, NIH3T3 control.
Where [21] appears, read: NPC library, therapeutic window: Control avg AUC minus MCC avg AUC.
Where [22] appears, read: NPC library, qHTS dose-response AUC, HACAT control.

Each structure is given as a SMILES string. Counter-ions that a name gives are not always drawn. Like-named read-outs stand apart in the source and are kept apart here.

Consider `Cc1nc2ccccn2c(=O)c1CCN1CCC(C(=O)c2ccc(F)cc2)CC1` [Pirenperone], for which the MKL2_AUC was determined as 400.974 with MKL-2 cells (VP-MCC) (setting [6]) and 400.974 in the assay with MKL-2 cells (VP-MCC) (area under the dose-response curve, MKL-2 cells, AUC<450 = reduced viability). Further, in assay [1] (setting [7]), the MCC_Avg_AUC was 419.003. For the same compound, the WAGA_AUC was 415.843 in the assay on WAGA cells (VP-MCC) (setting [8]) and 415.843 in the assay with WAGA cells (VP-MCC) (area under the dose-response curve, WAGA cells, AUC<450 = reduced viability). Moreover, the MKL1_AUC in the assay on MKL-1 cells (VP-MCC) (setting [9]) and with MKL-1 cells (VP-MCC) ({}) was 418.427 each time. Further, the CRL7250_AUC in the assay with CRL-7250 cells (setting [10]) is on record as 480.924; in the assay with CRL-7250 cells (area under the dose-response curve, CRL7250 control cells, AUC<450 = reduced viability), 480.924. Also, the UISO_AUC was 436.893 in the assay on UISO cells (VN-MCC) (setting [11]) and 436.893 in the assay with UISO cells (VN-MCC) (area under the dose-response curve, UISO cells, AUC<450 = reduced viability). Besides, the HEK293T_AUC is on record as 450.239 in the assay with HEK293T cells (setting [12]) and 450.239 with HEK293T cells (area under the dose-response curve, HEK293T control cells, AUC<450 = reduced viability). Besides, the VP-MCC_Avg_AUC in [2] (setting [13]) came to 411.748. Besides, the Control-VP-MCC in assay [2] (setting [14]) came out at 54.686. The Control_Avg_AUC in assay [3] (setting [15]) came out at 466.434. The VN-MCC_Avg_AUC in [4] (setting [16]) was 426.258. In assay [4] (setting [17]), this compound showed a Control-VN-MCC of 40.1758. In addition, the MCC26_AUC in the assay with MCC26 cells (VN-MCC) (setting [18]) worked out at 401.594; with MCC26 cells (VN-MCC) (area under the dose-response curve, MCC26 cells, AUC<450 = reduced viability) it was 401.594. Besides, the MCC13_AUC in the assay on MCC13 cells (VN-MCC) (setting [19]) was 440.287; with MCC13 cells (VN-MCC) (area under the dose-response curve, MCC13 cells, AUC<450 = reduced viability), 440.287. Also, the NIH3T3_AUC in the assay with NIH-3T3 cells (setting [20]) was determined as 477.551; in the assay with NIH-3T3 cells (area under the dose-response curve, NIH3T3 control cells, AUC<450 = reduced viability), 477.551. In [5] (setting [21]), the Control-MCC stood at 47.4309. For the same compound, the HACAT_AUC turned out to be 457.02 with HACAT cells (setting [22]) and 457.02 in the assay on HACAT cells (area under the dose-response curve, HACAT control cells, AUC<450 = reduced viability).

For `CC[N+]1(CC)CCC(=C(c2ccccc2)c2ccccc2)C1C` (stereo not drawn) [Prifinium bromide], in the assay on MKL-2 cells (VP-MCC) (setting [6]), the MKL2_AUC was 411.638. In assay [1] (setting [7]), this compound gave an MCC_Avg_AUC of 443.502. The compound also gave a WAGA_AUC in the assay with WAGA cells (VP-MCC) (setting [8]) of 419.066. This compound returned an MKL1_AUC in the assay on MKL-1 cells (VP-MCC) (setting [9]) of 413.62. Also, the CRL7250_AUC in the assay on CRL-7250 cells (setting [10]) is 489.513. The same compound registered a UISO_AUC with UISO cells (VN-MCC) (setting [11]) of 446.738. In addition, the HEK293T_AUC with HEK293T cells (setting [12]) amounted to 463.923. Besides, in assay [2] (setting [13]), the VP-MCC_Avg_AUC is 414.775. Further, the Control-VP-MCC in assay [2] (setting [14]) is listed as 53.5255. The Control_Avg_AUC in assay [3] (setting [15]) is recorded as 468.3. Also, in assay [4] (setting [16]), the VN-MCC_Avg_AUC is listed as 472.229. The Control-VN-MCC in [4] (setting [17]) is recorded as -3.929. For the same compound, the MCC26_AUC in the assay on MCC26 cells (VN-MCC) (setting [18]) came out at 492.512. For the same compound, the MCC13_AUC in the assay on MCC13 cells (VN-MCC) (setting [19]) is given as 477.436. Further, in the assay on NIH-3T3 cells (setting [20]), the NIH3T3_AUC stood at 466.796. In assay [5] (setting [21]), this compound showed a Control-MCC of 24.7984. In the assay on HACAT cells (setting [22]), this compound came in with an HACAT_AUC of 452.968.

As for `COc1cc(NC(C)CCCN)c2ncccc2c1` (stereo not drawn) [Primaquine diphosphate], the MKL2_AUC with MKL-2 cells (VP-MCC) was 418.75. This compound also gave an MCC_Avg_AUC in assay [1] of 438.799. The compound further registered a WAGA_AUC in the assay on WAGA cells (VP-MCC) of 404.704. In the assay with MKL-1 cells (VP-MCC), this compound came in with an MKL1_AUC of 406.282. Moreover, in the assay with CRL-7250 cells, the CRL7250_AUC came out at 485.915. Moreover, the UISO_AUC in the assay on UISO cells (VN-MCC) was determined as 458.954. Moreover, the HEK293T_AUC with HEK293T cells is on record as 455.709. In assay [2], this compound had a Control-VP-MCC of 69.0896 and a VP-MCC_Avg_AUC of 409.912. In assay [3], this compound registered a Control_Avg_AUC of 479.001. In addition, in [4], the Control-VN-MCC is given as 11.3144 and the VN-MCC_Avg_AUC was 467.687. This compound also returned an MCC26_AUC with MCC26 cells (VN-MCC) of 495.867. In the assay on MCC13 cells (VN-MCC), this compound came in with an MCC13_AUC of 448.24. In addition, the NIH3T3_AUC in the assay with NIH-3T3 cells is reported as 490.172. For the same compound, in assay [5], the Control-MCC came out at 40.202. For the same compound, the HACAT_AUC in the assay on HACAT cells is 484.209.

The compound `CCCC(C(=O)OCCN(CC)CC)(c1ccccc1)c1ccccc1` [Proadifen hydrochloride] had an MKL2_AUC in the assay on MKL-2 cells (VP-MCC) (setting [6]) of 398.333. In assay [1] (setting [7]), this compound had an MCC_Avg_AUC of 413.175. The WAGA_AUC with WAGA cells (VP-MCC) (setting [8]) is on record as 421.101. For the same compound, in the assay with MKL-1 cells (VP-MCC) (setting [9]), the MKL1_AUC is reported as 383.197. In the assay with CRL-7250 cells (setting [10]), the CRL7250_AUC is recorded as 484.159. Moreover, the UISO_AUC in the assay with UISO cells (VN-MCC) (setting [11]) is 416.723. Also, the HEK293T_AUC in the assay on HEK293T cells (setting [12]) came out at 426.534. This compound had a VP-MCC_Avg_AUC in assay [2] (setting [13]) of 400.877. In assay [2] (setting [14]), this compound came in with a Control-VP-MCC of 59.0165. The compound further had a Control_Avg_AUC in assay [3] (setting [15]) of 459.893. Besides, in assay [4] (setting [16]), the VN-MCC_Avg_AUC came to 425.473. Moreover, the Control-VN-MCC in [4] (setting [17]) turned out to be 34.42. The same compound returned an MCC26_AUC in the assay on MCC26 cells (VN-MCC) (setting [18]) of 413.531. Moreover, the MCC13_AUC in the assay on MCC13 cells (VN-MCC) (setting [19]) is 446.167. Besides, the NIH3T3_AUC with NIH-3T3 cells (setting [20]) worked out at 451.129. The Control-MCC in assay [5] (setting [21]) is 46.7182. The HACAT_AUC with HACAT cells (setting [22]) is 477.751.

The values are drawn from PMC11822212, “High-throughput screening identifies Aurora kinase B as a critical therapeutic target for Merkel cell carcinoma” (Nature Communications, 2025).
